Series [1] concerns CT26 mouse colon carcinoma. As to the kind of experiment: Treatment of established subcutaneous CT26 tumors in BALB/cJ mice (syngeneic CT26 mouse colon carcinoma model). Particulars: CFI-402257 6 mg/kg PO QD 21 days, anti-PD-1 antibody 150 μg IP Days 0, 3, 6, 10. It is filed as in vivo. As to the method: (§1) BALB/cJ mice were inoculated subcutaneously with 1×10^6 CT26 cells. The mice were then randomized. Animal weights were monitored daily, and tumor volume was measured three times per week.
[…] was defined as 100×[1−TVf, treated−TVi, treated)/(TVf, control−TVi, control)], where TVf is the average tumor volume at the end of study and TVi is the average tumor volume at the end initiation of treatment. In cases in which tumor regression occurred, percentage of tumor regression was defined as 100×[1−(TVf, treated/TVi, treated)]. At the completion of each study, the mice were killed by an anesthetic overdose, and tumor tissue was removed for further analysis.
Treatments were initiated when tumor volumes reached an average size of ˜60 mm^3. To treat an established tumor, the animals were first assigned into groups, i.e., the control group receiving rat IgG2a […], the group receiving the compound CFI-402257 monotherapy, the group receiving the rat IgG2a anti-PD-1 antibody monotherapy and the group receiving the combination therapy. The compound CFI-402257 and the vehicle [10% (v/v) NMP/40% (v/v) PEG-300/50% (v/v) water for the hydrochloride form; or 80-90% (v/v) PEG-300 or PEG-400 20-10% (v/v) water for the bisphosphate hemihydrate form] were administered by oral gavage (PO), at 6 mg/kg daily (QD) for 21 days. […]

A short description of series [2]: Animal body weight monitoring / tolerability in CT26 tumor-bearing BALB/cJ mice. It is filed as in vivo, mouse. As to the method: as §1
Treatments were initiated when tumor volumes reached an average size of ˜60 mm^3. To treat an established tumor, the animals were first assigned into groups, i.e., the control group receiving rat IgG2a […], the group receiving the compound CFI-402257 monotherapy, the group receiving the rat IgG2a anti-PD-1 antibody monotherapy and the group receiving the combination therapy. The compound CFI-402257 and the vehicle [10% (v/v) NMP/40% (v/v) PEG-300/50% (v/v) water for the hydrochloride form; or 80-90% (v/v) PEG-300 or PEG-400 20-10% (v/v) water for the bisphosphate hemihydrate form] were administered by oral gavage (PO), at 6 mg/kg daily (QD) for 21 days. The anti-PD-1 antibody or the isotype control were administered by intraperitoneal (IP) injection. 150 μg anti-PD-1 antibody was administered in four doses, i.e., on Days 0, 3, 6 and 10. These treatment studies were carried out in duplicates.

In the case of `Cc1cc(-c2cnn3c(NC[C@H]4C[C@@](C)(O)C4)cc(Oc4cccnc4)nc23)ccc1C(=O)NC1CC1` [CFI-402257], in series [1] (first and duplicate experiment together (FIGS. 1 and 2)), the complete tumor regression entry was “no instances in which complete regression was observed”. Further, the “effect on tumor growth (tumor volume)” value in series [1] (single agent arms, first and duplicate experiment (FIGS. 1B, 1C, 2B, 2C)) is reported as “tumor growth delay”. For the same compound, the “tolerability of the administered dosage” value in series [2] (CFI-402257 6 mg/kg PO QD 21 days, anti-PD-1 antibody 150 μg IP Days 0, 3, 6, 10) was “well-tolerated”. Moreover, the “animals recording significant body weight loss” value in series [2] (first experiment) is listed as “none”. Further, the body weight loss in series [2] (second experiment) is below 7.5%.

For the origin of these results see patent US11766437B2, “Combination therapies for inhibition of TTK protein kinase” (UNIVERSITY HEALTH NETWORK, priority 2018, dated 2023).
